Data published in US6706663B2, “Herbicidal 3-heterocyclic substituted benzisothiazole and benzisoxazole compounds” (Wyeth, priority 2000, dated 2004).

Columns and labels:
[1] = test system: CYPSE (Cyperus serotinus); assay: Flooded paddy, preemergence weed control; type: in vivo, Rottb.; settings: rated 3-4 weeks after treatment, 0-9 rating scale
Summary of the method: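 Seeds or propagules were planted 0.5 cm deep in silt loam and flooded to 1.5–3 cm. Compounds in 50/50 v/v aqueous/acetone were pipetted into the flood water at about 0.0080 to 0.1250 kg/ha. After 3–4 weeks in the greenhouse, effect was rated visually on a 0–9 scale versus untreated control.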

[2] = test system: TRZAWR (Wheat, Winter, cv Riband); assay: Preemergence herbicidal evaluation; type: in vivo, Triticum aestivum; settings: preemergence, rated 4-5 weeks after treatment
Summary of the method: (§1)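 Greenhouse preemergence test: freshly planted cups were sprayed once with an aqueous acetone solution of compound. Injury was judged visually on a 0–9 scale relative to a control, four to five weeks later.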

[3] = test system: GALAP (Galium aparine); assay: Postemergence herbicidal evaluation; type: in vivo
Summary of the method: (§2)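 Seedlings grown for about two weeks were sprayed postemergence and then kept under standard greenhouse care. Injury was rated visually 4–5 weeks after treatment on a 0–9 scale against untreated controls, and ratings from repeat tests were averaged.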

[4] = test system: CHEAL (Chenopodium album); assay: Postemergence herbicidal evaluation; type: in vivo, L.
Summary of the method: as §2

[5] = test system: CASOB (Cassia obtusifolia); assay: Postemergence herbicidal evaluation; type: in vivo, L.
Summary of the method: as §2

[6] = test system: AMBEL (Ambrosia artemisifolia); assay: Postemergence herbicidal evaluation; type: in vivo, L.
Summary of the method: as §2

[7] = test system: ORYSAT (Rice, Tebonnet); assay: Postemergence herbicidal evaluation; type: in vivo, Oryza sativa, (L.) Tebonnet
Summary of the method: as §2

[8] = test system: IPOHE (Ipomoea hederacea); assay: Preemergence herbicidal evaluation; type: in vivo, (L.) Jacq.; settings: preemergence, rated 4-5 weeks after treatment
[9] = test system: ORYSAT (Rice, Tebonnet); assay: Preemergence herbicidal evaluation; type: in vivo, Oryza sativa, (L.) Tebonnet; settings: preemergence, rated 4-5 weeks after treatment
[10] = test system: SAGPY (Sagittaria pygmaea); assay: Flooded paddy, preemergence weed control; type: in vivo, L.; settings: rated 3-4 weeks after treatment, 0-9 rating scale
Summary of the method: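 Plants were established from seed or propagating organs in flooded silt loam, with the water surface held 1.5 to 3 cm above the soil for the entire experiment. Injury was assessed visually against a control and given a 0-9 score.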

[11] = test system: ABUTH (Abutilon theophrasti); assay: Preemergence herbicidal evaluation; type: in vivo, Medic.; settings: preemergence, rated 4-5 weeks after treatment
[12] = test system: ZEAMX (Corn, Field); assay: Postemergence herbicidal evaluation; type: in vivo, Zea mays, L.
Summary of the method: as §2

[13] = test system: CHEAL (Chenopodium album); assay: Preemergence herbicidal evaluation; type: in vivo, L.; settings: preemergence, rated 4-5 weeks after treatment
Summary of the method: as §1

[14] = test system: CASOB (Cassia obtusifolia); assay: Preemergence herbicidal evaluation; type: in vivo, L.; settings: preemergence, rated 4-5 weeks after treatment
Summary of the method: as §1

[15] = test system: AMBEL (Ambrosia artemisifolia); assay: Preemergence herbicidal evaluation; type: in vivo, L.; settings: preemergence, rated 4-5 weeks after treatment
Summary of the method: as §1

[16] = test system: ABUTH (Abutilon theophrasti); assay: Postemergence herbicidal evaluation; type: in vivo, Medic.
Summary of the method: as §2

[17] = test system: GLXMAW (Soybean, Williams); assay: Postemergence herbicidal evaluation; type: in vivo, Glycine max, (L.) Merr. cv Williams
Summary of the method: as §2

[18] = test system: ORYSAT (Rice, Tebonnet); assay: Flooded paddy, post-transplant rice tolerance; type: in vivo, Oryza sativa, (L.) Tebonnet; settings: flooded paddy, post-transplant rice, rated 3-4 weeks after treatment, 0-9 rating scale
Summary of the method: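 Ten-day-old seedlings, 2/pot, silt loam; flood kept 1.5–3 cm over soil; herbicide applied post-transplant; greenhouse; score 0–9 visual vs control.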

[19] = test system: ECHCG (Echinochloa crus-galli); assay: Postemergence herbicidal evaluation; type: in vivo, (L.) Beau
Summary of the method: as §2

[20] = test system: GALAP (Galium aparine); assay: Preemergence herbicidal evaluation; type: in vivo; settings: preemergence, rated 4-5 weeks after treatment
Summary of the method: as §1

Cn1ccnc1-c1nsc2ccc(-n3c(=O)cc(C(F)(F)F)n(C)c3=O)cc12 [Compound 5, 1-methyl-3-[3-(1-methylimidazol-2-yl)-1,2-benzisothiazol-5-yl]-6-(trifluoromethyl)uracil]
herbicidal rating, CYPSE ([1]; rate 0.0320 kg/ha): 0.0 | herbicidal rating, CYPSE ([1]; rate 0.1250 kg/ha): 0.0 | TRZAWR preemergence herbicidal rating ([2]; Rate 0.0620 kg/ha): 5.0 | TRZAWR preemergence herbicidal rating ([2]; Rate 0.1250 kg/ha): 7.0 | TRZAWR preemergence herbicidal rating ([2]; Rate 0.2500 kg/ha): 8.0 | Postemergence herbicidal rating, GALAP ([3]; rate 0.0320 kg/ha): 0.0 | Postemergence herbicidal rating, GALAP ([3]; rate 0.0620 kg/ha): 4.0 | Postemergence herbicidal rating, CHEAL ([4]; rate 0.0320 kg/ha): 0.0 | Postemergence herbicidal rating, CHEAL ([4]; rate 0.0620 kg/ha): 2.0 | Postemergence herbicidal rating, CASOB ([5]; rate 0.0320 kg/ha): 0.0 | Postemergence herbicidal rating, CASOB ([5]; rate 0.0620 kg/ha): 2.0 | Postemergence herbicidal rating, AMBEL ([6]; rate 0.0320 kg/ha): 2.0 | Postemergence herbicidal rating, AMBEL ([6]; rate 0.0620 kg/ha): 9.0 | Postemergence herbicidal rating, ORYSAT ([7]; rate 0.0320 kg/ha): 2.0 | Postemergence herbicidal rating, ORYSAT ([7]; rate 0.0620 kg/ha): 3.0 | IPOHE preemergence herbicidal rating ([8]; Rate 0.0620 kg/ha): 4.0 | IPOHE preemergence herbicidal rating ([8]; Rate 0.1250 kg/ha): 9.0 | IPOHE preemergence herbicidal rating ([8]; Rate 0.2500 kg/ha): 9.0 | ORYSAT preemergence herbicidal rating ([9]; Rate 0.0620 kg/ha): 3.0 | ORYSAT preemergence herbicidal rating ([9]; Rate 0.1250 kg/ha): 5.0 | ORYSAT preemergence herbicidal rating ([9]; Rate 0.2500 kg/ha): 7.5 | herbicidal rating, SAGPY ([10]; rate 0.0320 kg/ha): 0.0 | herbicidal rating, SAGPY ([10]; rate 0.1250 kg/ha): 0.0 | ABUTH preemergence herbicidal rating ([11]; Rate 0.0620 kg/ha): 7.0 | ABUTH preemergence herbicidal rating ([11]; Rate 0.1250 kg/ha): 9.0 | ABUTH preemergence herbicidal rating ([11]; Rate 0.2500 kg/ha): 9.0 | Postemergence herbicidal rating, ZEAMX ([12]; rate 0.0320 kg/ha): 4.5 | Postemergence herbicidal rating, ZEAMX ([12]; rate 0.0620 kg/ha): 5.5 | CHEAL preemergence herbicidal rating ([13]; Rate 0.0620 kg/ha): 9.0 | CHEAL preemergence herbicidal rating ([13]; Rate 0.1250 kg/ha): 9.0 | CHEAL preemergence herbicidal rating ([13]; Rate 0.2500 kg/ha): 9.0 | CASOB preemergence herbicidal rating ([14]; Rate 0.0620 kg/ha): 0.0 | CASOB preemergence herbicidal rating ([14]; Rate 0.1250 kg/ha): 1.0 | CASOB preemergence herbicidal rating ([14]; Rate 0.2500 kg/ha): 5.5 | AMBEL preemergence herbicidal rating ([15]; Rate 0.0620 kg/ha): 8.5 | AMBEL preemergence herbicidal rating ([15]; Rate 0.1250 kg/ha): 9.0 | AMBEL preemergence herbicidal rating ([15]; Rate 0.2500 kg/ha): 9.0 | Postemergence herbicidal rating, ABUTH ([16]; rate 0.0320 kg/ha): 9.0 | Postemergence herbicidal rating, ABUTH ([16]; rate 0.0620 kg/ha): 9.0 | Postemergence herbicidal rating, GLXMAW ([17]; rate 0.0320 kg/ha): 5.5 | Postemergence herbicidal rating, GLXMAW ([17]; rate 0.0620 kg/ha): 6.0 | herbicidal rating, ORYSAT (rice tolerance) ([18]; rate 0.0320 kg/ha): 2.0 | herbicidal rating, ORYSAT (rice tolerance) ([18]; rate 0.1250 kg/ha): 3.0 | Postemergence herbicidal rating, ECHCG ([19]; rate 0.0320 kg/ha): 0.0 | Postemergence herbicidal rating, ECHCG ([19]; rate 0.0620 kg/ha): 0.0 | GALAP preemergence herbicidal rating ([20]; Rate 0.0620 kg/ha): 4.0 | GALAP preemergence herbicidal rating ([20]; Rate 0.1250 kg/ha): 5.0 | GALAP preemergence herbicidal rating ([20]; Rate 0.2500 kg/ha): 7.0

CCc1cc(-c2nsc3ccc(-n4c(=O)cc(C(F)(F)F)n(C)c4=O)cc23)c(CC)s1 [Compound 8, 3-[3-(2,5-diethyl-3-thienyl)-1,2-benzisothiazol-5-yl]-1-methyl-6-(trifluoromethyl)uracil]
herbicidal rating, CYPSE ([1]; rate 0.1250 kg/ha): 4.5 | TRZAWR preemergence herbicidal rating ([2]; Rate 0.0620 kg/ha): 0.0 | TRZAWR preemergence herbicidal rating ([2]; Rate 0.1250 kg/ha): 0.0 | TRZAWR preemergence herbicidal rating ([2]; Rate 0.2500 kg/ha): 0.0 | Postemergence herbicidal rating, GALAP ([3]; rate 0.0320 kg/ha): 3.0 | Postemergence herbicidal rating, GALAP ([3]; rate 0.0620 kg/ha): 6.0 | Postemergence herbicidal rating, CHEAL ([4]; rate 0.0320 kg/ha): 4.0 | Postemergence herbicidal rating, CHEAL ([4]; rate 0.0620 kg/ha): 7.0 | Postemergence herbicidal rating, CASOB ([5]; rate 0.0320 kg/ha): 1.0 | Postemergence herbicidal rating, CASOB ([5]; rate 0.0620 kg/ha): 1.0 | Postemergence herbicidal rating, AMBEL ([6]; rate 0.0320 kg/ha): 3.0 | Postemergence herbicidal rating, AMBEL ([6]; rate 0.0620 kg/ha): 6.0 | Postemergence herbicidal rating, ORYSAT ([7]; rate 0.0320 kg/ha): 3.0 | Postemergence herbicidal rating, ORYSAT ([7]; rate 0.0620 kg/ha): 3.0 | IPOHE preemergence herbicidal rating ([8]; Rate 0.0620 kg/ha): 0.0 | IPOHE preemergence herbicidal rating ([8]; Rate 0.1250 kg/ha): 0.0 | IPOHE preemergence herbicidal rating ([8]; Rate 0.2500 kg/ha): 1.0 | ORYSAT preemergence herbicidal rating ([9]; Rate 0.0620 kg/ha): 0.0 | ORYSAT preemergence herbicidal rating ([9]; Rate 0.1250 kg/ha): 0.0 | ORYSAT preemergence herbicidal rating ([9]; Rate 0.2500 kg/ha): 0.0 | herbicidal rating, SAGPY ([10]; rate 0.0080 kg/ha): 0.0 | herbicidal rating, SAGPY ([10]; rate 0.0320 kg/ha): 0.0 | herbicidal rating, SAGPY ([10]; rate 0.1250 kg/ha): 0.0 | ABUTH preemergence herbicidal rating ([11]; Rate 0.0620 kg/ha): 0.0 | ABUTH preemergence herbicidal rating ([11]; Rate 0.1250 kg/ha): 9.0 | ABUTH preemergence herbicidal rating ([11]; Rate 0.2500 kg/ha): 9.0 | Postemergence herbicidal rating, ZEAMX ([12]; rate 0.0320 kg/ha): 5.0 | Postemergence herbicidal rating, ZEAMX ([12]; rate 0.0620 kg/ha): 5.0 | CHEAL preemergence herbicidal rating ([13]; Rate 0.0620 kg/ha): 9.0 | CHEAL preemergence herbicidal rating ([13]; Rate 0.1250 kg/ha): 9.0 | CHEAL preemergence herbicidal rating ([13]; Rate 0.2500 kg/ha): 9.0 | CASOB preemergence herbicidal rating ([14]; Rate 0.0620 kg/ha): 0.0 | CASOB preemergence herbicidal rating ([14]; Rate 0.1250 kg/ha): 0.0 | CASOB preemergence herbicidal rating ([14]; Rate 0.2500 kg/ha): 0.0 | AMBEL preemergence herbicidal rating ([15]; Rate 0.0620 kg/ha): 0.0 | AMBEL preemergence herbicidal rating ([15]; Rate 0.1250 kg/ha): 2.0 | AMBEL preemergence herbicidal rating ([15]; Rate 0.2500 kg/ha): 9.0 | Postemergence herbicidal rating, ABUTH ([16]; rate 0.0320 kg/ha): 9.0 | Postemergence herbicidal rating, ABUTH ([16]; rate 0.0620 kg/ha): 9.0 | Postemergence herbicidal rating, GLXMAW ([17]; rate 0.0320 kg/ha): 5.0 | Postemergence herbicidal rating, GLXMAW ([17]; rate 0.0620 kg/ha): 5.5 | herbicidal rating, ORYSAT (rice tolerance) ([18]; rate 0.0080 kg/ha): 1.0 | herbicidal rating, ORYSAT (rice tolerance) ([18]; rate 0.0320 kg/ha): 1.5 | herbicidal rating, ORYSAT (rice tolerance) ([18]; rate 0.1250 kg/ha): 2.7 | Postemergence herbicidal rating, ECHCG ([19]; rate 0.0320 kg/ha): 2.0 | Postemergence herbicidal rating, ECHCG ([19]; rate 0.0620 kg/ha): 2.0 | GALAP preemergence herbicidal rating ([20]; Rate 0.0620 kg/ha): 0.0 | GALAP preemergence herbicidal rating ([20]; Rate 0.1250 kg/ha): 0.0 | GALAP preemergence herbicidal rating ([20]; Rate 0.2500 kg/ha): 9.0
